From article PMC3670925, “Extracellular Modulation of the Silkmoth Sex Pheromone Receptor Activity by Cyclic Nucleotides” (PLoS ONE, 2013) come the findings set out here.

Common to all, as to assay type: cell-based
Assay [1] has as its target T1, AgOr2 (Anopheles gambiae, UniProt Q8WTE6).
T1 construct: gene OR2; with AgOrco
Description: two-electrode voltage clamp in Xenopus oocytes, […]. In general terms: In two-electrode clamp one electrode senses voltage and the other passes current.

Assay [2] deals with T2, Or47a (Drosophila melanogaster, UniProt P81921).
T2 construct: with Orco
T2 sequence (P81921 1-385): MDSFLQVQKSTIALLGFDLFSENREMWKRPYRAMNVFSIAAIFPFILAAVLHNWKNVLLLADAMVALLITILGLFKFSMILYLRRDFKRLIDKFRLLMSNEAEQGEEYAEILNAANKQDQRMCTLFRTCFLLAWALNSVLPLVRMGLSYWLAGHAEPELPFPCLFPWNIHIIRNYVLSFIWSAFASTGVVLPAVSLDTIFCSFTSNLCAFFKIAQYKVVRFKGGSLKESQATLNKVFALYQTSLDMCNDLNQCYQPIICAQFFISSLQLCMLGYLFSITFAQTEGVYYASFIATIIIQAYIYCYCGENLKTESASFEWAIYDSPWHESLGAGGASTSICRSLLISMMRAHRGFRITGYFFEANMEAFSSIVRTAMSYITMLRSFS
T2 sequence (Q9VNB5 1-486 partner): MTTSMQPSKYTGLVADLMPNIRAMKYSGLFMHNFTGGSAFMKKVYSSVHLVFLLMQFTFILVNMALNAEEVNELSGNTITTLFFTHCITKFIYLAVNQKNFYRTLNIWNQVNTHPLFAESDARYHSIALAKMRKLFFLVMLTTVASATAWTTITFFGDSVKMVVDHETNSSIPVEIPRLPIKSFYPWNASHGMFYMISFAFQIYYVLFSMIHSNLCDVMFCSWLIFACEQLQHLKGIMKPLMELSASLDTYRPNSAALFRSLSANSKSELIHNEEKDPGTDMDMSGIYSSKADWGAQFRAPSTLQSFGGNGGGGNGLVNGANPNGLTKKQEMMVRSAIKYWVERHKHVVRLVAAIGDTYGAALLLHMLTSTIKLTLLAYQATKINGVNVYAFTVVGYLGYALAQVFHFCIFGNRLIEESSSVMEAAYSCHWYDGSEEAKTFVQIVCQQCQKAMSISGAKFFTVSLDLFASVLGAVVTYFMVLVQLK
Briefly: two-electrode voltage clamp in Xenopus oocytes, […].

In assay [3] the target is T3, BmOr-1 (Bombyx mori, UniProt Q5WA61).
T3 construct: with BmOrco
T3 sequence (Q5WA61 1-430): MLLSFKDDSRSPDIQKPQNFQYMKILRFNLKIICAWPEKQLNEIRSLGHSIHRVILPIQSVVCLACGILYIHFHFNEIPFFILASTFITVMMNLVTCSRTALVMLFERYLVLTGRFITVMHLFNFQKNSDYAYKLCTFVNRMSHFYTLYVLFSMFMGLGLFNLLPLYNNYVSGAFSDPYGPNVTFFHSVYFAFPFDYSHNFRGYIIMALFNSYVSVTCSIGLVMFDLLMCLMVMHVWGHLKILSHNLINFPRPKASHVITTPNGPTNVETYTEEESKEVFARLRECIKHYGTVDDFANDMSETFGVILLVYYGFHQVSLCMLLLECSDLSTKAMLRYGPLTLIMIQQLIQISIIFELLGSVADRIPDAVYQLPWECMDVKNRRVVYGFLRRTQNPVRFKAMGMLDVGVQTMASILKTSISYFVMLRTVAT
T3 sequence (Q7YT34 1-472 partner): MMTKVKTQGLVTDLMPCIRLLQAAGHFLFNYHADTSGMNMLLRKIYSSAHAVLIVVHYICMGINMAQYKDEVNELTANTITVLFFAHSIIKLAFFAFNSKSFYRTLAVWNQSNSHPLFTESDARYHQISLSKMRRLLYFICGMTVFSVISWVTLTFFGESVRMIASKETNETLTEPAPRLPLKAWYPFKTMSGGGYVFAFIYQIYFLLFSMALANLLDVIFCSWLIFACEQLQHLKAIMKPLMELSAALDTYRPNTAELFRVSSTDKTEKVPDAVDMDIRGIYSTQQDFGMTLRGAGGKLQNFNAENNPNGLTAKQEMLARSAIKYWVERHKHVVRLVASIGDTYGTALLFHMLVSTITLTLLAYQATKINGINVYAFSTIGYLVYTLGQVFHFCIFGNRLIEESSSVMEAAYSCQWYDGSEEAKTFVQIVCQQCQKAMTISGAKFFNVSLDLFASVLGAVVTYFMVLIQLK
Briefly: two-electrode voltage clamp in Xenopus oocytes, dose-response.

T1 sequence (Q8WTE6 whole entry): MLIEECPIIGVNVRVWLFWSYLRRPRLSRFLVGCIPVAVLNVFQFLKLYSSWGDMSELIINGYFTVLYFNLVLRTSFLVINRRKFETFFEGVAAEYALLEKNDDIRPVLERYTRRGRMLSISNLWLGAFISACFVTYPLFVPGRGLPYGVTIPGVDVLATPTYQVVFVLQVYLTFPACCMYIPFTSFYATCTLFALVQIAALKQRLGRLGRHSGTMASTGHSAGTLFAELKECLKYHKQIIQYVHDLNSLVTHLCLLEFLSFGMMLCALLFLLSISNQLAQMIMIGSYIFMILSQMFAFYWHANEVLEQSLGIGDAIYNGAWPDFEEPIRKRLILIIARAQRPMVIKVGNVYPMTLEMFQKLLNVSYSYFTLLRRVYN

With `Cc1ccccc1O` [2-methylphenol], the “two-electrode voltage clamp in Xenopus oocytes, 100 μM” value in assay [1] was “oocytes expressing various insect Or-Orco complex in response to their cognate ligands and cyclic nucleotide reagents”. Take `CCCCCOC(C)=O` [pentylacetate]: the “two-electrode voltage clamp in Xenopus oocytes, 100 μM” value in assay [2] was “oocytes expressing various insect Or-Orco complex in response to their cognate ligands and cyclic nucleotide reagents”.

For `CCC/C=C\C=C\CCCCCCCCCO` [bombykol], in assay [3], it took 8.2 µM to reach a half-maximal effect (EC50).
